Here are results for five molecules from patent publication US20020054861A1, “Method of preparing particularly skin-compatible cosmetic or dematological cleansing preparations” (priority 1999, published 2002).

The assay relates to skin (inner sides of the forearms). Put plainly: Adsorption of lauryl ether sulfate on the skin in a simulated washing operation (forearm, desorption with Triton X-100, ion-pair chromatography). In kind it is in vivo, human. How it is done:
The method which we have developed for determining the adsorption of lauryl ether sulfate on the skin simulates a washing operation as occurs, for example, during daily showering: Firstly, the inner sides of the forearms are divided into a number of test areas using insulating tape. The area to be treated is then wetted with approximately 50 ml of mains wafer (T=38±1° C.). The lauryl ether sulfate is then applied. Throughout the application period of 45 s, the test subject distributes the lauryl ether sulfate over the area using 2 fingers in uniform circular movements. At the end of the application period, the test area is rinsed with approximately 950 ml of mains water (T=38±1° C.) and carefully patted dry using a clean cellulose cloth. For the desorption, a plastic ring with an internal diameter of 25 mm is pressed firmly onto the inner side of the test subject's forearm. 1000 μl of a 1% Triton X-100 solution are then introduced into the ring. The tip of a round Teflon-coated spatula is then used to scrape the skin uniformly for 1 min. This leads to suspension of corneocytes. To work up the samples for analysis, the samples are centrifuged and 800 μl of the supernatant are drawn off. The supernatant is analyzed with regard to its lauryl ether sulfate content using ion-pair chromatography. The effectiveness of the desorption method described is 79%, i.e. 79% of the amount of lauryl ether sulfate actually present on the skin are included.

[1] abbreviates: cosurfactant concentration 3%, added to a lauryl ether sulfate solution.

For `CCCCCCCCCCCC(=O)O` [Lauric acid], the “Effect on the adsorbed amount of lauryl ether sulfate (reduction)” value (shortened to “Effect on the adsorbed amount … (reduction)”) (cosurfactant concentration 1%, pH9, added to a lauryl ether sulfate solution) is given as “Reduction by 15%”.

As to `CCCCCCCCCCO[C@@H]1O[C@H](CO)[C@@H](O)[C@H](O)[C@H]1O` [Decyl glucoside], the “Effect on the adsorbed amount … (reduction)” value (cosurfactant concentration 5%, added to a lauryl ether sulfate solution) was “Reduction by 29%”. As to cocamidopropylbetaine, under setting [1], the “Effect on the adsorbed amount … (reduction)” value is on record as “Reduction by 31%”. The same measure, in the same setting: the entry for disodium laureth sulfosuccinate is “Reduction by 28%”; for sodium cocoamphoacetate it is “Reduction by 27%”.
